# How the values were obtained:
# [1] = cited from earlier work
# [2] = system: 5-6 leaf tomato plants (var. Rutgers); assay: Tomato epinasty test (Cerone/ethephon challenge); assay type: in vivo; details: 200 l/ha, average of 8 plants
# Description: Bioassay test material: 5-6 leaf tomato plants (var. Rutgers), 8 reps/treatment.
# The first column of table 1 provides a summary of change in angle of the 3rd leaf petiole at 24 hours after application of Cerone (ethephon). There are two sets of data, one for those challenged with Cerone at 4 hours after 1-MCP formulation application and a second set for plants challenged with Cerone at 24 hrs after 1-MCP formulation application. Data are the averages of 8 replicate plants
# Procedures Used for Epinasty Test:
# 1-MCP formulation and rates: 1-MCP in the form of an α-cyclodextrin molecularly encapsulated powder dispersed in an aqueous MgSO4 solution
# Standard foliar spray at 200 l/ha and 0.035% v/v kinetic silicon adjuvant 0, 10 and 20 g ai/ha
# Application rate 500 g ai/ha at 400 l/ha application volume
# Application at 4 and 24 HAA of Invinsa
# Angle of 3rd petiole to plants stem measured prior to 1-MCP application and again at 24 HAT Final data expressed as average change in 3rd petiole angle
# [3] = system: Wheat plants, variety ARINA; assay: Effect of 1-MCP on stressed wheat plants grown in pouches (drought stress); assay type: in vivo; details: 200 ppm in the pouch water at day 8; 5 days without watering at 26° C.; FIG. 1
# Description: FIG. 1 illustrates wheat plants grown in pouches. On the right-hand side plants treated with 1-MCP and on the left-hand side non treated check plants.
# 10 mL of the mixture are added per pouch with a pipette.
# 20 to 25 Wheat kernels from the variety ARINA were sown in a plastic bag (pouch) with an absorbent paper, watered and grown under optimal conditions in a climate chamber for 8 days. At day 8 the 1-MCP in the form of an α-cyclodextrin molecularly encapsulated powder was applied at a 200 ppm rate to the water in the pouch. After application the plants were not watered anymore, but placed in a warm environment at 26° C. After 5 days without watering the differences of treated vs. untreated were evaluated visually (FIG. 1).
# [4] = system: 5-6 leaf tomato plants (var. Rutgers); assay: Tomato epinasty test (Cerone/ethephon challenge); assay type: in vivo; details: average of 8 plants
compound,measurement,setting,value
"CC1=CC1 [1-MCP, 1-methylcyclopropene]",water-solubility,[1],137 mg I−1
same,Average change in angle of third petiole,"[2]; 10 g ai/ha foliar spray, Cerone applied 4 HAA 1-MCP",71
same,Average change in angle of third petiole,"[2]; 10 g ai/ha foliar spray, Cerone applied 24 HAA 1-MCP",82
same,Average change in angle of third petiole,"[2]; 20 g ai/ha foliar spray, Cerone applied 4 HAA 1-MCP",40
same,Average change in angle of third petiole,"[2]; 20 g ai/ha foliar spray, Cerone applied 24 HAA 1-MCP",86
same,"drought tolerance of treated vs. untreated plants, evaluated visually",[3],greater drought tolerance than control plants
same,Average change in angle of third petiole,"[4]; 1 g ai/ha chemigation, Cerone applied 4 HAA 1-MCP",60
same,Average change in angle of third petiole,"[4]; 1 g ai/ha chemigation, Cerone applied 24 HAA 1-MCP",78
same,Average change in angle of third petiole,"[4]; 10 g ai/ha chemigation, Cerone applied 4 HAA 1-MCP",20
same,Average change in angle of third petiole,"[4]; 10 g ai/ha chemigation, Cerone applied 24 HAA 1-MCP",48
same,Average change in angle of third petiole,"[4]; 20 g ai/ha chemigation, Cerone applied 4 HAA 1-MCP",−9
same,Average change in angle of third petiole,"[4]; 20 g ai/ha chemigation, Cerone applied 24 HAA 1-MCP",41
same,Average change in angle of third petiole,"[4]; >20 g ai/ha chemigation (incorrect pump calibration), Cerone applied 4 HAA 1-MCP",−4
same,Average change in angle of third petiole,"[4]; >20 g ai/ha chemigation (incorrect pump calibration), Cerone applied 24 HAA 1-MCP",18
